Assay results as given in patent publication US10098902B2, “Arginase inhibitors as therapeutics” (Mars, Incorporated, priority 2010, dated 2018).
Values belong to the compound of their own block, whether it stands above or below them.

What was measured:
[1] = target: human arginase II (ARG II) (Homo sapiens (Human), UniProt P78540); assay: Inhibition of arginase II, spectrophotometric urea assay at 530 nm; format: biochemical; conditions: potency rank 1-5; pH 7.4, 37° C., 60 minutes
Description: (§1) Inhibition of arginase I (ARG I) and arginase II (ARG II) by Formula I or Formula II compounds is followed spectrophotometrically at 530 nm. The compound to be tested was dissolved in DMSO at an initial concentration 50-fold greater than its final concentration in the cuvette. 10 μl of the stock solution was diluted in 90 μl of the assay buffer that comprises 0.1M sodium phosphate buffer containing 130 mM NaCl, pH 7.4, to which is added ovalbumin (OVA) at a concentration of 1 mg/ml. Solutions of arginase I and II were prepared in 100 mM sodium phosphate buffer, pH 7.4 containing 1 mg/ml of OVA to give an arginase stock solution at a final concentration of 100 ng/ml.
(§2) To each well of a 96-well microtiter plate was added 40 μl of enzyme, 10 μl of an inventive compound and 10 μl of enzyme substrate (L-arginine+manganese sulfate). For wells that were used as positive controls, only the enzyme and its substrate were added, while wells used as negative controls contained only manganese sulfate.
(§3) After incubating the microtiter plate at 37° C. for 60 minutes, 150 μl of a urea reagent obtained by combining equal proportions (1:1) of reagents A and B is added to each well of the microtiter plate to stop the reaction. The urea reagent is made just before use by combining Reagent A (10 mM o-phthaldialdehyde, and 0.4% polyoxyethylene (23) lauryl ether (w/v) in 1.8 M sulfuric acid) with Reagent B (1.3 mM primaquine diphosphate, 0.4% polyoxyethylene (23) lauryl ether (w/v), 130 mM boric acid in 3.6 mM sulfuric acid). After quenching the reaction mixture, the microtiter plate is allowed to stand for an additional 10 minutes at room temperature to allow the color to develop. The inhibition of arginase was computed by measuring the optical density (OD) of the reaction mixture at 530 nm and normalizing the OD value to percent inhibition observed in the control. The normalized OD is then used to generate a dose-response curve by plotting the normalized OD values against log [concentration] and using regression analysis to compute the IC50 values.

[2] = target: human arginase I (ARG I) (Homo sapiens (Human), UniProt P05089); assay: Inhibition of arginase I, spectrophotometric urea assay at 530 nm; format: biochemical; conditions: potency rank 1-5; pH 7.4, 37° C., 60 minutes
Description: as §1, §2, §3

Sequence of human arginase II (ARG II) (P78540 23-354): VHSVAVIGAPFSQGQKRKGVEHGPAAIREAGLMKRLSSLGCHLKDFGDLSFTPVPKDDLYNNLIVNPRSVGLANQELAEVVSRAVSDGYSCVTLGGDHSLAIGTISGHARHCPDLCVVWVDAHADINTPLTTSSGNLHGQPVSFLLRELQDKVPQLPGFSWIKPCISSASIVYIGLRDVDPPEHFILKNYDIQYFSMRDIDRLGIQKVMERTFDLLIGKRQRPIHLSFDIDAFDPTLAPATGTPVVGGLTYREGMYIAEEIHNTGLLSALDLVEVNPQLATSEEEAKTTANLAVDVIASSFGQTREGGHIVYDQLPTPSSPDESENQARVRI
Sequence of human arginase I (ARG I) (P05089 whole entry): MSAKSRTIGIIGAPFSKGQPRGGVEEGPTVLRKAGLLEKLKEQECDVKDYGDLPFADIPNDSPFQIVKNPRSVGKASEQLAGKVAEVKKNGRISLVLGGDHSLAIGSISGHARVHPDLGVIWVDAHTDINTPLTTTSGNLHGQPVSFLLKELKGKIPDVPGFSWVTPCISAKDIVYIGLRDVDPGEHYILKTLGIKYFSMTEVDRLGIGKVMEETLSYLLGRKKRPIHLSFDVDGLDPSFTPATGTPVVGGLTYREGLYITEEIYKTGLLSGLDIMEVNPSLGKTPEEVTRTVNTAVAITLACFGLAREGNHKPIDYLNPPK

IC50 [1]: 0.1 to 250 nM | IC50 [2]: 0.1 to 250 nM
SMILES: NCCN1C[C@H](CCCB(O)O)[C@](N)(C(=O)O)C1 [Example 24, (3R,4S)-3-amino-1-(2-aminoethyl)-4-(3-boronopropyl)pyrrolidine-3-carboxylic acid]

IC50 [1]: 251 to 1000 nM | IC50 [2]: 251 to 1000 nM
SMILES: N[C@@]1(C(=O)O)CN(C2CCNCC2)C[C@@H]1CCCB(O)O [Example 26, (3R,4S)-3-amino-4-(3-boronopropyl)-1-(piperidin-4-yl)pyrrolidine-3-carboxylic acid]

IC50 [1]: 1000 to 2000 nM | IC50 [2]: 251 to 1000 nM
SMILES: N[C@@]1(C(=O)O)CN(C2CCC(C(=O)O)CC2)C[C@@H]1CCCB(O)O (stereo partly drawn) [Example 30, (3R,4S)-3-amino-4-(3-boronopropyl)-1-(4-carboxycyclohexyl)pyrrolidine-3-carboxylic acid]

IC50 [1]: 1000 to 2000 nM | IC50 [2]: 1000 to 2000 nM
SMILES: Cc1ccncc1N1C[C@H](CCCB(O)O)[C@](N)(C(=O)O)C1 [Example 32, (3R,4S)-3-amino-4-(3-boronopropyl)-1-(4-methylpyridin-3-yl)pyrrolidine-3-carboxylic acid]

IC50 [1]: 251 to 1000 nM | IC50 [2]: 0.1 to 250 nM
SMILES: N[C@@]1(C(=O)O)CN(CCN2CCCCC2)C[C@@H]1CCCB(O)O [Example 33, (3R,4S)-3-amino-4-(3-boronopropyl)-1-(2-(piperidin-1-yl)ethyl)pyrrolidine-3-carboxylic acid]

IC50 [1]: 251 to 1000 nM | IC50 [2]: 0.1 to 250 nM
SMILES: CN1CCCCC1CN1C[C@H](CCCB(O)O)[C@](N)(C(=O)O)C1 (stereo partly drawn) [Example 36, (3R,4S)-3-amino-4-(3-boronopropyl)-1-((1-methylpiperidin-2-yl)methyl)pyrrolidine-3-carboxylic acid]

IC50 [1]: 0.1 to 250 nM | IC50 [2]: 0.1 to 250 nM
SMILES: NC1CCCCC1N1C[C@H](CCCB(O)O)[C@](N)(C(=O)O)C1 (stereo partly drawn) [Example 44, (3R,4S)-3-amino-1-(2-aminocyclohexyl)-4-(3-boronopropyl)pyrrolidine-3-carboxylic acid]

IC50 [1]: 251 to 1000 nM | IC50 [2]: 251 to 1000 nM
SMILES: N[C@@]1(C(=O)O)CN(C(=O)Cc2ccc(Cl)cc2)C[C@@H]1CCCB(O)O [Example 45, (3R,4S)-3-amino-4-(3-boronopropyl)-1-(2-(4-chlorophenyl)acetyl)pyrrolidine-3-carboxylic acid]

IC50 [1]: 0.1 to 250 nM | IC50 [2]: 0.1 to 250 nM
SMILES: N[C@@]1(C(=O)O)CN(CC2Cc3cc(Cl)ccc3CN2)C[C@@H]1CCCB(O)O (stereo partly drawn) [Example 51, (3R,4S)-3-amino-4-(3-boronopropyl)-1-((6-chloro-1,2,3,4-tetrahydroisoquinolin-3-yl)methyl)pyrrolidine-3-carboxylic acid]

IC50 [1]: 0.1 to 250 nM | IC50 [2]: 0.1 to 250 nM
SMILES: N[C@@]1(C(=O)O)CN(CCNc2ccc(-c3ccccc3)cc2)C[C@@H]1CCCB(O)O [Example 52, (3R,4S)-3-amino-1-(2-(biphenyl-4-ylamino)ethyl)-4-(3-boronopropyl)pyrrolidine-3-carboxylic acid]

More lines, now with the values behind:

SMILES: N[C@@]1(C(=O)O)CN(Cc2c[nH]cn2)C[C@@H]1CCCB(O)O [Example 20, (3R,4S)-1-((1H-imidazol-4-yl)methyl)-3-amino-4-(3-boronopropyl)pyrrolidine-3-carboxylic acid]
IC50 [1]: 251 to 1000 nM | IC50 [2]: 0.1 to 250 nM

SMILES: N[C@@]1(C(=O)O)CN(CC2CCCCN2)C[C@@H]1CCCB(O)O (stereo partly drawn) [Example 21, (3R,4S)-3-amino-4-(3-boronopropyl)-1-(piperidin-2-ylmethyl)pyrrolidine-3-carboxylic acid]
IC50 [1]: 0.1 to 250 nM | IC50 [2]: 0.1 to 250 nM

SMILES: N[C@@]1(C(=O)O)CN(CCCc2ccc(Cl)cc2)C[C@@H]1CCCB(O)O [Example 22, (3R,4S)-3-amino-4-(3-boronopropyl)-1-(3-(4-chlorophenyl)propyl)pyrrolidine-3-carboxylic acid]
IC50 [1]: 251 to 1000 nM | IC50 [2]: 251 to 1000 nM

SMILES: N[C@@]1(C(=O)O)CN(c2ncnc3nc[nH]c23)C[C@@H]1CCCB(O)O [Example 23, (3R,4S)-3-amino-4-(3-boronopropyl)-1-(7H-purin-6-yl)pyrrolidine-3-carboxylic acid]
IC50 [1]: 1000 to 2000 nM | IC50 [2]: 251 to 1000 nM

SMILES: N[C@@]1(C(=O)O)CN(c2cncc(C(=O)O)c2)C[C@@H]1CCCB(O)O [Example 25, 5-((3R,4S)-3-amino-4-(3-boronopropyl)-3-carboxypyrrolidin-1-yl)nicotinic acid]
IC50 [1]: 251 to 1000 nM | IC50 [2]: 251 to 1000 nM

SMILES: N[C@@]1(C(=O)O)CN(C2CCNC2)C[C@@H]1CCCB(O)O (stereo partly drawn) [Example 27, (3R,4S)-3-amino-4-(3-boronopropyl)-1,3′-bipyrrolidine-3-carboxylic acid]
IC50 [1]: 0.1 to 250 nM | IC50 [2]: 0.1 to 250 nM

SMILES: N[C@@]1(C(=O)O)CN(C2CCCNC2)C[C@@H]1CCCB(O)O (stereo partly drawn) [Example 28, (3R,4S)-3-amino-4-(3-boronopropyl)-1-(piperidin-3-yl)pyrrolidine-3-carboxylic acid]
IC50 [1]: 251 to 1000 nM | IC50 [2]: 0.1 to 250 nM

SMILES: N[C@@]1(C(=O)O)CN(Cc2ccccn2)C[C@@H]1CCCB(O)O [Example 29, (3R,4S)-3-amino-4-(3-boronopropyl)-1-(pyridin-2-ylmethyl)pyrrolidine-3-carboxylic acid]
IC50 [1]: 1000 to 2000 nM | IC50 [2]: 1000 to 2000 nM

SMILES: Cn1ccnc1CN1C[C@H](CCCB(O)O)[C@](N)(C(=O)O)C1 [Example 31, (3R,4S)-3-amino-4-(3-boronopropyl)-1-((1-methyl-1H-imidazol-2-yl)methyl)pyrrolidine-3-carboxylic acid]
IC50 [1]: 251 to 1000 nM | IC50 [2]: 0.1 to 250 nM

SMILES: CCN(CC)CCN1C[C@H](CCCB(O)O)[C@](N)(C(=O)O)C1 [Example 34, (3R,4S)-3-amino-4-(3-boronopropyl)-1-(2-(diethylamino)ethyl)pyrrolidine-3-carboxylic acid]
IC50 [1]: 251 to 1000 nM | IC50 [2]: 0.1 to 250 nM

SMILES: CN[C@@]1(C(=O)O)CNC[C@@H]1CCCB(O)O [Example 35, (3R,4S)-4-(3-boronopropyl)-3-(methylamino)pyrrolidine-3-carboxylic acid]
IC50 [1]: 251 to 1000 nM | IC50 [2]: 251 to 1000 nM

SMILES: N[C@@]1(C(=O)O)CN(CC2CCCN2)C[C@@H]1CCCB(O)O (stereo partly drawn) [Example 37, (3R,4S)-3-amino-4-(3-boronopropyl)-1-(pyrrolidin-2-ylmethyl)pyrrolidine-3-carboxylic acid]
IC50 [1]: 251 to 1000 nM | IC50 [2]: 0.1 to 250 nM

SMILES: N[C@@]1(C(=O)O)CN(CCN2CCCC2)C[C@@H]1CCCB(O)O [Example 38, (3R,4S)-3-amino-4-(3-boronopropyl)-1-(2-(pyrrolidin-1-yl)ethyl)pyrrolidine-3-carboxylic acid]
IC50 [1]: 0.1 to 250 nM | IC50 [2]: 0.1 to 250 nM

SMILES: N[C@@]1(C(=O)O)CN(C[C@@H]2Cc3ccccc3CN2)C[C@@H]1CCCB(O)O [Example 39, (3R,4S)-3-amino-4-(3-boronopropyl)-1-(((S)-1,2,3,4-tetrahydroisoquinolin-3-yl)methyl)pyrrolidine-3-carboxylic acid]
IC50 [1]: 0.1 to 250 nM | IC50 [2]: 0.1 to 250 nM

SMILES: N[C@@]1(C(=O)O)CN(CCNCc2ccccc2)C[C@@H]1CCCB(O)O [Example 40, (3R,4S)-3-amino-1-(2-(benzylamino)ethyl)-4-(3-boronopropyl)pyrrolidine-3-carboxylic acid]
IC50 [1]: 0.1 to 250 nM | IC50 [2]: 0.1 to 250 nM

SMILES: N[C@@]1(C(=O)O)CN(CCNCc2ccc(Cl)c(Cl)c2)C[C@@H]1CCCB(O)O [Example 41, (3R,4S)-3-amino-4-(3-boronopropyl)-1-(2-(3,4-dichlorobenzylamino)ethyl)pyrrolidine-3-carboxylic acid]
IC50 [1]: 0.1 to 250 nM | IC50 [2]: 0.1 to 250 nM

SMILES: N[C@@]1(C(=O)O)CN(C(=O)Nc2ccc(Cl)cc2)C[C@@H]1CCCB(O)O [Example 42, (3R,4S)-3-amino-4-(3-boronopropyl)-1-(4-chlorophenylcarbamoyl)pyrrolidine-3-carboxylic acid]
IC50 [1]: 251 to 1000 nM | IC50 [2]: 251 to 1000 nM

SMILES: N[C@@]1(C(=O)O)CN(C(=O)[C@@H]2CCCN2)C[C@@H]1CCCB(O)O [Example 43, (3R,4S)-3-amino-4-(3-boronopropyl)-1-((S)-pyrrolidine-2-carbonyl)pyrrolidine-3-carboxylic acid]
IC50 [1]: 251 to 1000 nM | IC50 [2]: 0.1 to 250 nM

SMILES: COc1ccc(C(=O)N2C[C@H](CCCB(O)O)[C@](N)(C(=O)O)C2)cc1 [Example 47, (3R,4S)-3-amino-4-(3-boronopropyl)-1-(4-methoxybenzoyl)pyrrolidine-3-carboxylic acid]
IC50 [1]: 251 to 1000 nM | IC50 [2]: 251 to 1000 nM

SMILES: N[C@@]1(C(=O)O)CN(CC2Cc3ccc(Cl)cc3CN2)C[C@@H]1CCCB(O)O (stereo partly drawn) [Example 49, (3R,4S)-3-amino-4-(3-boronopropyl)-1-((7-chloro-1,2,3,4-tetrahydroisoquinolin-3-yl)methyl)pyrrolidine-3-carboxylic acid]
IC50 [1]: 0.1 to 250 nM | IC50 [2]: 0.1 to 250 nM

SMILES: Nc1ccccc1S(=O)(=O)N1C[C@H](CCCB(O)O)[C@](N)(C(=O)O)C1 [Example 50, (3R,4S)-3-amino-1-(2-aminophenylsulfonyl)-4-(3-boronopropyl)pyrrolidine-3-carboxylic acid]
IC50 [1]: 1000 to 2000 nM | IC50 [2]: 251 to 1000 nM
